Laboratory results from patent US8106055B2, “Substituted amide compounds” (Gruenenthal GmbH, priority 2007, dated 2012).

Key:
[1] = target: T1, human bradykinin 1 receptor (B1R) (Homo sapiens, UniProt P46663); assay: Functional investigation on the human bradykinin 1 receptor (B1R), Ca2+ FLIPR assay in CHO K1 hB1R cells; type: cell-based; conditions: CHO-K1, B1R antagonism human; test substance 10 μM; Ca2+ FLIPR, CHO K1 hB1R cells; read-out: B1R Ant. h [10 μM] % Inhibition
T1 construct: expressed in transfected cells; host or cells: CHO K1 cells
T1 sequence (P46663 1-353): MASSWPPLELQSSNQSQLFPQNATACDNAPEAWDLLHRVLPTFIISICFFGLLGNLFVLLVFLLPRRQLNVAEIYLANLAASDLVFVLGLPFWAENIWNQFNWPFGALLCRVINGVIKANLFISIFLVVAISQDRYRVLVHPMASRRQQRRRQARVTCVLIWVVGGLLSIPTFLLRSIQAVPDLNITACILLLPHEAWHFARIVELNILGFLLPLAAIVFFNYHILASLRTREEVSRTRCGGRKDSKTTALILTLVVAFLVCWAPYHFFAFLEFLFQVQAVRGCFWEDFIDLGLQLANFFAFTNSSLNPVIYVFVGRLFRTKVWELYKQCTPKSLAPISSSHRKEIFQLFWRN
In short: (§1)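 Cells were dye-loaded with Fluo-4 plus probenecid, then test substances added and Ca2+ influx compared with agonist control for % activation. After 10-20 min, EC80 agonist (Lys-Des-Arg9-bradykinin human; Des-Arg9-bradykinin rat) was applied; suppression gave % inhibition and IC50 values.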

[2] = target: T2, bradykinin 1 receptor (B1R) of the rat (Rattus norvegicus, UniProt P97583); assay: Functional investigation on the rat bradykinin 1 receptor (B1R), Ca2+ FLIPR assay in CHO K1 rB1R cells; type: cell-based; conditions: CHO-K1, B1R antagonism rat; test substance 10 μM; Ca2+ FLIPR, CHO K1 rB1R cells; read-out: B1R Ant. r [10 μM] % Inhibition
T2 construct: expressed in transfected cells; host or cells: CHO K1 cells
T2 sequence (P97583 1-337): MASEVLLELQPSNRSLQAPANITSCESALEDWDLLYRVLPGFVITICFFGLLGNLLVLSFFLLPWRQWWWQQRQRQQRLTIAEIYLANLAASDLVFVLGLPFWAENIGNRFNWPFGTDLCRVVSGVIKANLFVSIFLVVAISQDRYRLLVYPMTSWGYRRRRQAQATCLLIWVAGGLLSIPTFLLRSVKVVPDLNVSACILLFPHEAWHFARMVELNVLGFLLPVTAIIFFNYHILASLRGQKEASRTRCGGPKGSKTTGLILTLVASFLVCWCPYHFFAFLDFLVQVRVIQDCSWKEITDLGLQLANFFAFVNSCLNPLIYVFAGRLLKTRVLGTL
In short: as §1

SMILES: CN(C)C(c1cccc(F)c1)C1CCC(CCNC(=O)COCC2CCCCN2S(=O)(=O)c2ccc(Cl)c(Cl)c2)CC1 (centres unmarked) [Example 147, 2-((1-(3,4-dichlorophenylsulfonyl)piperidin-2-yl)methoxy)-N-(2-(4-((dimethylamino)(3-fluorophenyl)methyl)cyclohexyl)ethyl)acetamide]
- inhibition at 10 µM [1]: 52%
- inhibition at 10 µM [2]: 27%

SMILES: COc1ccc(S(=O)(=O)N2Cc3ccccc3CC2COCC(=O)NCCC2CCC(C(c3cccc(F)c3)N(C)C)CC2)cc1 (centres unmarked) [Example 190, N-(2-(4-((dimethylamino) (3-fluorophenyl)methyl)cyclohexyl)ethyl)-2-((2-(4-methoxyphenylsulfonyl)-1,2,3,4-tetrahydroisoquinolin-3-yl)methoxy)acetamide]
- inhibition at 10 µM [1]: 29%
- inhibition at 10 µM [2]: 18%

SMILES: COc1ccc(S(=O)(=O)N(C)CCOCC(=O)NCC2CCC(C(c3cccs3)N(C)C)CC2)cc1 (centres unmarked) [Example 142, N-((4-((dimethylamino)(thiophen-2-yl)methyl)cyclohexyl)methyl)-2-(2-(4-methoxy-N-methylphenylsulfonamido)ethoxy)acetamide]
- inhibition at 10 µM [1]: 50%
- inhibition at 10 µM [2]: 41%

SMILES: COc1cc(C)c(S(=O)(=O)N(CCOCC(=O)NCCC2CCC(C(c3cccs3)N(C)C)CC2)Cc2ccccc2)c(C)c1 (centres unmarked) [Example 149, 2-(2-(N-benzyl-4-methoxy-2,6-dimethylphenylsulfonamido)ethoxy)-N-(2-(4-((dimethylamino) (thiophen-2-yl)methyl)cyclohexyl)ethyl)acetamide]
- inhibition at 10 µM [1]: 72%
- inhibition at 10 µM [2]: 10%

SMILES: CN(C)C(c1cccs1)C1CCC(NC(=O)COC2CCN(S(=O)(=O)c3ccccc3)C2)CC1 (centres unmarked) [Example 194, N-(4-((dimethylamino)(thiophen-2-yl)methyl)cyclohexyl)-2-(1-(phenylsulfonyl)pyrrolidin-3-yloxy)acetamide]
- inhibition at 10 µM [1]: -17%
- inhibition at 10 µM [2]: 14%

SMILES: COc1ccc(S(=O)(=O)N(C)CCOCC(=O)NCC2CCC(C(c3ccccc3)N(C)C)CC2)cc1OC (centres unmarked) [Example 169, 2-(2-(3,4-dimethoxy-N-methylphenylsulfonamido)ethoxy)-N-((4-((dimethylamino)(phenyl)methyl)cyclohexyl)methyl)acetamide]
- inhibition at 10 µM [1]: -4%
- inhibition at 10 µM [2]: -15%

SMILES: Cc1ccc(S(=O)(=O)N2CCC(OCC(=O)NCC3CCC(C(c4cccc(F)c4)N(C)C)CC3)C2)cc1 (centres unmarked) [Example 185, N-((4-((dimethylamino)(3-fluorophenyl)methyl)cyclohexyl)methyl)-2-(1-tosylpyrrolidin-3-yloxy)acetamide]
- inhibition at 10 µM [1]: 9%
- inhibition at 10 µM [2]: 28%

SMILES: COc1cc(C)c(S(=O)(=O)N(C)CCOCC(=O)NCC2CCC(C(c3ccccc3)N(C)C)CC2)c(C)c1 (centres unmarked) [Example 137, N-((4-((dimethylamino)(phenyl)methyl)cyclohexyl)methyl)-2-(2-(4-methoxy-N,2,6-trimethylphenylsulfonamido)ethoxy)acetamide]
- inhibition at 10 µM [1]: 102%
- inhibition at 10 µM [2]: 100%

SMILES: CN(C)C(c1cccc(F)c1)C1CCC(CCNC(=O)COCCN(C)S(=O)(=O)c2ccc(Cl)cc2)CC1 (centres unmarked) [Example 186, 2-(2-(4-chloro-N-methylphenylsulfonamido)ethoxy)-N-(2-(4-((dimethylamino)(3-fluorophenyl)methyl)cyclohexyl)ethyl)acetamide]
- inhibition at 10 µM [1]: 23%
- inhibition at 10 µM [2]: 35%

SMILES: CN(C)C(c1cccc(F)c1)C1CCC(NC(=O)COC2CCN(S(=O)(=O)c3cccc(C(F)(F)F)c3)C2)CC1 (centres unmarked) [Example 139, N-(4-((dimethylamino)(3-fluorophenyl)methyl)cyclohexyl)-2-(1-(3-(trifluoromethyl)phenylsulfonyl)pyrrolidin-3-yloxy)acetamide]
- inhibition at 10 µM [1]: -5%
- inhibition at 10 µM [2]: 21%

SMILES: COc1cc(C)c(S(=O)(=O)N2CCC(OCC(=O)NCCC3CCC(C(c4cccs4)N(C)C)CC3)CC2)c(C)c1C (centres unmarked) [Example 177, N-(2-(4-((dimethylamino)(thiophen-2-yl)methyl)cyclohexyl)ethyl)-2-(1-(4-methoxy-2,3,6-trimethylphenylsulfonyl)piperidin-4-yloxy)acetamide]
- inhibition at 10 µM [1]: 10%
- inhibition at 10 µM [2]: 45%

SMILES: Cc1cc(C)c(S(=O)(=O)N2CCC(OCC(=O)NCC3CCC(C(c4ccccc4)N(C)C)CC3)C2)c(C)c1 (centres unmarked) [Example 26, N-((4-((dimethylamino)(phenyl)methyl)cyclohexyl)methyl)-2-(1-(mesitylsulfonyl)pyrrolidin-3-yloxy)acetamide]
- inhibition at 10 µM [1]: 51%
- inhibition at 10 µM [2]: 38%

SMILES: CN(C)C(c1cccc(F)c1)C1CCC(NC(=O)COC2CCN(S(=O)(=O)c3ccc(F)cc3)C2)CC1 (centres unmarked) [Example 172, N-(4-((dimethylamino)(3-fluorophenyl)methyl)cyclohexyl)-2-(1-(4-fluorophenylsulfonyl)pyrrolidin-3-yloxy)acetamide]
- inhibition at 10 µM [1]: -12%
- inhibition at 10 µM [2]: 18%

SMILES: COc1cc(C)c(S(=O)(=O)N2CCC(OCC(=O)NCCC3CCC(C(c4cccs4)N(C)C)CC3)C2)c(C)c1 (centres unmarked) [Example 199, N-(2-(4-((dimethylamino)(thiophen-2-yl)methyl)cyclohexyl)ethyl)-2-(1-(4-methoxy-2,6-dimethylphenylsulfonyl)pyrrolidin-3-yloxy)acetamide]
- inhibition at 10 µM [1]: 104%
- inhibition at 10 µM [2]: 100%

SMILES: COc1cc(C)c(S(=O)(=O)N2CCCC(OCC(=O)NCC3CCC(C(c4cccc(F)c4)N(C)C)CC3)C2)c(C)c1C (centres unmarked) [Example 145, N-((4-((dimethylamino)(3-fluorophenyl)methyl)cyclohexyl)methyl)-2-(1-(4-methoxy-2,3,6-trimethylphenylsulfonyl)piperidin-3-yloxy)acetamide]
- inhibition at 10 µM [1]: 12%
- inhibition at 10 µM [2]: 33%

SMILES: COc1ccc(S(=O)(=O)N2Cc3ccccc3CC2COCC(=O)NCC2CCC(C(c3ccccc3)N(C)C)CC2)cc1 (centres unmarked) [Example 19, N-((4-((dimethylamino)(phenyl)methyl)cyclohexyl)methyl)-2-((2-(4-methoxyphenylsulfonyl)-1,2,3,4-tetrahydroisoquinolin-3-yl)methoxy)acetamide]
- inhibition at 10 µM [1]: 63%
- inhibition at 10 µM [2]: 4%
